ChEMBL document CHEMBL4420076, “Amylin and calcitonin receptor agonist” (2017)
Numbered stars: 1 amine (or outer) side, 2 acyl side, 3 side chain; on linkers, the order of the positions; unused ones are H or OH. Peptide text beside a SMILES is read from it. * marks the point of attachment. C20 diacid = O=C(O)CCCCCCCCCCCCCCCCCCC(=O)*; C18 diacid = O=C(O)CCCCCCCCCCCCCCCCC(=O)*; γGlu = O=C(O)[C@H](CCC(=O)[*:2])N[*:1]

Experiments:
[1] = Solubility in 100 mM bistrispropane buffer at pH 7.0 incubated for 18 hrs by UPLC analysis; type: physicochemical
Calcitonin receptor [2] = target: T1, Calcitonin receptor (Homo sapiens, UniProt P30988); assay: Displacement of [125I]-labeled human calcitonin from human calcitonin receptor expressed in BHK tkts13 cell membranes incubated for 1 hr by scintillation proximity assay
T1 sequence (P30988 whole entry): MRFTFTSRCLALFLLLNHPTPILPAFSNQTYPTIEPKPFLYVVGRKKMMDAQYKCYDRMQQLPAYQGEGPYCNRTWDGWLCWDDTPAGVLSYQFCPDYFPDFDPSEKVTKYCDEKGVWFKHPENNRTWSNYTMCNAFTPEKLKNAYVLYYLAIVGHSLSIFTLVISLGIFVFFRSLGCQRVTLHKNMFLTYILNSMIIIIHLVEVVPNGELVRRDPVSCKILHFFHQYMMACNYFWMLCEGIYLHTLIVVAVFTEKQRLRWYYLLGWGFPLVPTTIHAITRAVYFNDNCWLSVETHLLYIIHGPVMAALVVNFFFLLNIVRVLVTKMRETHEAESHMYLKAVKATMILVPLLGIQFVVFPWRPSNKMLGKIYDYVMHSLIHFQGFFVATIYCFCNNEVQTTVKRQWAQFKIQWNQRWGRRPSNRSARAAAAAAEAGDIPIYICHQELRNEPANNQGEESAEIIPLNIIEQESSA

[3] = Solubility in 100 mM glycylglycine buffer at pH 3.0 incubated for 18 hrs by UPLC analysis; type: physicochemical
[4] = target: T2, Amylin receptor AMY3; CALCR/RAMP3 (Homo sapiens, UniProt O60896+P30988); assay: Agonist activity at human amylin receptor expressed in BHK570 cells co-expressing RAMP3 assessed as increase in intracellular cAMP concentration incubated for 3 hrs in absence of albumin by CRE luciferase reporter gene assay; type: functional, cell-based
T2 sequence (P30988 whole entry): T1 sequence (P30988 whole entry)
T2 sequence (O60896 whole entry): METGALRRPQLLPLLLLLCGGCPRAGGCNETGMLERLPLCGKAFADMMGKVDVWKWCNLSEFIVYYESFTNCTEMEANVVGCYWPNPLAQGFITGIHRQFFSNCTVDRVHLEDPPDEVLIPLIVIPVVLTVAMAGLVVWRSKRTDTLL

[5] = Solubility in 100 mM bistrispropane buffer at pH 7.5 incubated for 18 hrs by UPLC analysis; type: physicochemical
[6] = target: T3, Amylin receptor AMY3; CALCR/RAMP3 (Rattus norvegicus, UniProt P32214+Q9JJ73); assay: Displacement of [125I]-labeled rat amylin from rat amylin receptor expressed in BHK tkts13 cell membranes co-expressing RAMP3 incubated for 120 mins by scintillation proximity assay
T3 sequence (P32214 whole entry): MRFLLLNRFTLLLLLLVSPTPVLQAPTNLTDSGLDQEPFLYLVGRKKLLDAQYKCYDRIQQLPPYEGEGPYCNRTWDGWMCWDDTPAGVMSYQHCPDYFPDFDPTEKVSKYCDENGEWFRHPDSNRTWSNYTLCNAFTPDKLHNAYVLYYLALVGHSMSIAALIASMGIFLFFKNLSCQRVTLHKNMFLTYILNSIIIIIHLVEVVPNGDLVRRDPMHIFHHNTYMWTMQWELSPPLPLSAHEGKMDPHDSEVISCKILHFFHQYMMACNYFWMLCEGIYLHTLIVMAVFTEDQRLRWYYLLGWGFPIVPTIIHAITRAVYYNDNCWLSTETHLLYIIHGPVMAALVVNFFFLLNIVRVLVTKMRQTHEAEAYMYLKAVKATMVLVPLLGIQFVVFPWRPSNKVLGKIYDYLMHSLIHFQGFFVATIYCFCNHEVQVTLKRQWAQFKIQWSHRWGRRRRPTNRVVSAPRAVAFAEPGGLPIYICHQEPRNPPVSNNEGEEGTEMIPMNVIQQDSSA
T3 sequence (Q9JJ73 whole entry): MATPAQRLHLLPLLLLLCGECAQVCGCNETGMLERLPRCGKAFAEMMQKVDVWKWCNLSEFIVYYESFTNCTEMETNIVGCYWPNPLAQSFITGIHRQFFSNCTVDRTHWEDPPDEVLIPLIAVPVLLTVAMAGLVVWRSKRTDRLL

[7] = Solubility in 100 mM bistrispropane buffer at pH 6.5 incubated for 18 hrs by UPLC analysis; type: physicochemical
Rattus norvegicus [8] = assay: Reduction in food intake in Sprague-Dawley rat at 3 nmol/kg measured 24 to 48 hrs post dose relative to control; type: functional; parameters: scale not given: the % may be the effect or the level left
[9] = target: T2, Amylin receptor AMY3; CALCR/RAMP3; assay: Agonist activity at human amylin receptor expressed in BHK570 cells co-expressing RAMP3 assessed as increase in intracellular cAMP concentration incubated for 3 hrs in presence of 10% FBS by CRE luciferase reporter gene assay; type: functional, cell-based
Calcitonin receptor [10] = target: T1, Calcitonin receptor; assay: Agonist activity at human calcitonin receptor expressed in BHK570 cells assessed as increase in intracellular cAMP concentration incubated for 3 hrs in presence of 10% FBS by CRE luciferase reporter gene assay; type: functional, cell-based
[11] = target: T2, Amylin receptor AMY3; CALCR/RAMP3; assay: Displacement of [125I]-labeled rat amylin from human amylin receptor expressed in BHK570 cell membranes co-expressing RAMP3 incubated for 120 mins by scintillation proximity assay
Rattus norvegicus [12] = assay: Reduction in food intake in Sprague-Dawley rat at 3 nmol/kg measured 0 to 24 hrs post dose relative to control; type: functional; parameters: scale not given: the % may be the effect or the level left
[13] = Solubility in 100 mM glycylglycine buffer at pH 5.0 incubated for 18 hrs by UPLC analysis; type: physicochemical
[14] = Solubility in 100 mM glycylglycine buffer at pH 4.0 incubated for 18 hrs by UPLC analysis; type: physicochemical
[15] = Solubility in 100 mM bistrispropane buffer at pH 6.0 incubated for 18 hrs by UPLC analysis; type: physicochemical
Calcitonin receptor [16] = target: T1, Calcitonin receptor; assay: Agonist activity at human calcitonin receptor expressed in BHK570 cells assessed as increase in intracellular cAMP concentration incubated for 3 hrs in absence of albumin by CRE luciferase reporter gene assay; type: functional, cell-based
[17] = Solubility in 100 mM bistrispropane buffer at pH 8.0 incubated for 18 hrs by UPLC analysis; type: physicochemical
[18] = target: T2, Amylin receptor AMY3; CALCR/RAMP3; assay: Displacement of [125I]-labeled rat amylin from human amylin receptor expressed in BHK tkts13 whole cells co-expressing RAMP3 incubated for 60 mins by scintillation proximity assay; type: cell-based

Compound	solubility at 18 h [1] [µM]	IC50 (Calcitonin receptor [2]) [nM]	solubility at 18 h [3] [µM]	EC50 [4] [nM]	solubility at 18 h [5] [µM]	IC50 [6] [nM]	solubility at 18 h [7] [µM]	Activity (Rattus norvegicus [8]) [%]	EC50 [9] [nM]	EC50 (Calcitonin receptor [10]) [nM]	IC50 [11] [nM]	Activity (Rattus norvegicus [12]) [%]	solubility at 18 h [13] [µM]	solubility at 18 h [14] [µM]	solubility at 18 h [15] [µM]	EC50 (Calcitonin receptor [16]) [nM]	solubility at 18 h [17] [µM]	IC50 [18] [nM]
CC(C)C[C@H](NC(=O)[C@H](C)NC(=O)[C@H](C)NC(=O)[C@@H](NC(=O)[C@H](CO)NC(=O)[C@H](CC(C)C)NC(=O)[C@H](CCC(=O)O)NC(=O)[C@H](CO)NC(=O)[C@H](C)NC(=O)CCCCCCCCCCCCCCCCC(=O)O)[C@@H](C)O)C(=O)NCC(=O)N[C@@H](CCCNC(=N)N)C(=O)N[C@@H](CC(C)C)C(=O)N[C@@H](CO)C(=O)N[C@@H](C)C(=O)N[C@@H](CCC(=O)O)C(=O)N[C@@H](CC(C)C)C(=O)N[C@@H](Cc1cnc[nH]1)C(=O)N[C@@H](CCC(=O)O)C(=O)N[C@@H](CC(C)C)C(=O)N[C@@H](C)C(=O)N[C@H](C(=O)N[C@@H](CC(C)C)C(=O)N1CCC[C@H]1C(=O)N[C@@H](CCCNC(=N)N)C(=O)N[C@H](C(=O)N[C@@H](CCC(=O)O)C(=O)N[C@H](C(=O)NCC(=O)N[C@@H](CO)C(=O)NCC(=O)N[C@@H](CO)C(=O)N1CCC[C@H]1C(N)=O)[C@@H](C)O)[C@@H](C)O)[C@@H](C)O ({C18 diacid}-ASELSTAALGRLSAELHELATLPRTETGSGSP-NH2)	≥ 200	0.034	≥ 200	0.018	≥ 200	0.063	≥ 200	11	0.009	0.008	0.077	52	≥ 200	≥ 200	≥ 200	0.017	≥ 200	
CC(C)C[C@H](NC(=O)[C@H](C)NC(=O)[C@H](C)NC(=O)[C@@H](NC(=O)[C@H](CO)NC(=O)[C@H](CC(C)C)NC(=O)[C@H](CCC(=O)O)NC(=O)[C@H](CO)NC(=O)[C@H](C)NC(=O)CC[C@H](NC(=O)CCCCCCCCCCCCCCCCCCC(=O)O)C(=O)O)[C@@H](C)O)C(=O)NCC(=O)N[C@@H](Cc1cnc[nH]1)C(=O)N[C@@H](CC(C)C)C(=O)N[C@@H](CO)C(=O)N[C@@H](C)C(=O)N[C@@H](CCC(=O)O)C(=O)N[C@@H](CC(C)C)C(=O)N[C@@H](Cc1cnc[nH]1)C(=O)N[C@@H](CCC(=O)O)C(=O)N[C@@H](CC(C)C)C(=O)N[C@@H](C)C(=O)N[C@H](C(=O)N[C@@H](CC(C)C)C(=O)N1CCC[C@H]1C(=O)N[C@@H](CCCNC(=N)N)C(=O)N[C@H](C(=O)N[C@@H](CCC(=O)O)C(=O)N[C@H](C(=O)NCC(=O)N[C@@H](CO)C(=O)NCC(=O)N[C@@H](CO)C(=O)N1CCC[C@H]1C(N)=O)[C@@H](C)O)[C@@H](C)O)[C@@H](C)O ({C20 diacid-γGlu}-ASELSTAALGHLSAELHELATLPRTETGSGSP-NH2)	≥ 200	0.097	≥ 200	0.017	≥ 200	1.53	≥ 200	11		0.048	0.565	17	≥ 200	≥ 200	≥ 200	0.012	≥ 200	0.697
